Experimental findings from patent EP4707277A1, “NOVEL HETEROCYCLIC AMINE DERIVATIVES AND PHARMACEUTICAL COMPOSITION COMPRISING SAME” (Daewoong Pharmaceutical Co., Ltd., priority 2023, dated 2024) are described below.

Like-named read-outs stand apart in the source and are kept apart here.

In experiment [1] the target is T1, ITK (Homo sapiens, UniProt Q08881).
T1 construct: purchased Signalchem I13-11G-10
T1 sequence (Q08881 1-620): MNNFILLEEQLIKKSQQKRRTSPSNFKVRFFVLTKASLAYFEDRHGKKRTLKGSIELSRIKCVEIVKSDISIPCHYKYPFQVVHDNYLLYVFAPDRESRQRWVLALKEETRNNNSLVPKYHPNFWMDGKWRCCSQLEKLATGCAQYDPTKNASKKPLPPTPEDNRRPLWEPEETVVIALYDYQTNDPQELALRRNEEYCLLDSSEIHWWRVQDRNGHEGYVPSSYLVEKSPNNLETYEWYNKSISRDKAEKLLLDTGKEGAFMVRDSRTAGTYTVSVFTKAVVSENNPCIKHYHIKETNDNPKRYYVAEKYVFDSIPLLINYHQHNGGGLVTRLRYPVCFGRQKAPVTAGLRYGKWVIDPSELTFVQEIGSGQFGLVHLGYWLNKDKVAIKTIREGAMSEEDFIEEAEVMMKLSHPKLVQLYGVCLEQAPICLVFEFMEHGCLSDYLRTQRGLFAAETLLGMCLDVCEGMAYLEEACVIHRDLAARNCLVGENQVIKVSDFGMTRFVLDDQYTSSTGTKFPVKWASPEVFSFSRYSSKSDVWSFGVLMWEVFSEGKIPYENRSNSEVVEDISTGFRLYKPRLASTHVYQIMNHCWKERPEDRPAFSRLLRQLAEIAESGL
Put plainly: Inhibitory activity against ITK, ADP-Glo Kinase system (Promega). Format: biochemical. The gist of the method:
(§1)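 IC50 values were fitted from kinase reactions run for 1 h at 30°C with either 1 mM ATP or ATP at Km (10 µM for BTK, 25 µM for ITK). Reactions used 0.2 µg/µl poly(Glu4,Tyr1), recombinant human enzyme (BTK 10 ng, ITK 4 ng per reaction) in Tris pH 7.5 Mn/Mg buffer with 1% DMSO. ADP formed was read by ADP-Glo luminescence.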
Background: ADP-Glo turns the ADP formed in a reaction into a luminescent signal.

Experiment [2] concerns the target T2, BTK (Homo sapiens, UniProt Q06187).
T2 construct: purchased Signalchem B10-10H
Put plainly: Inhibitory activity against BTK, ADP-Glo Kinase system (Promega). It is filed as biochemical. The gist of the method:
as §1

The mark [3] stands for this setting: 1mM ATP, read-out: ITK IC50(nM) 1mM ATP.
[4] abbreviates: 1mM ATP, read-out: BTK IC50(nM) 1mM ATP.
The mark [5] stands for this setting: Km ATP (ITK: 25uM), read-out: ITK IC50(nM) Km ATP.
Setting [6] is: Km ATP (BTK: 10 uM), read-out: BTK IC50(nM) Km ATP.

T2 sequence (Q06187 whole entry): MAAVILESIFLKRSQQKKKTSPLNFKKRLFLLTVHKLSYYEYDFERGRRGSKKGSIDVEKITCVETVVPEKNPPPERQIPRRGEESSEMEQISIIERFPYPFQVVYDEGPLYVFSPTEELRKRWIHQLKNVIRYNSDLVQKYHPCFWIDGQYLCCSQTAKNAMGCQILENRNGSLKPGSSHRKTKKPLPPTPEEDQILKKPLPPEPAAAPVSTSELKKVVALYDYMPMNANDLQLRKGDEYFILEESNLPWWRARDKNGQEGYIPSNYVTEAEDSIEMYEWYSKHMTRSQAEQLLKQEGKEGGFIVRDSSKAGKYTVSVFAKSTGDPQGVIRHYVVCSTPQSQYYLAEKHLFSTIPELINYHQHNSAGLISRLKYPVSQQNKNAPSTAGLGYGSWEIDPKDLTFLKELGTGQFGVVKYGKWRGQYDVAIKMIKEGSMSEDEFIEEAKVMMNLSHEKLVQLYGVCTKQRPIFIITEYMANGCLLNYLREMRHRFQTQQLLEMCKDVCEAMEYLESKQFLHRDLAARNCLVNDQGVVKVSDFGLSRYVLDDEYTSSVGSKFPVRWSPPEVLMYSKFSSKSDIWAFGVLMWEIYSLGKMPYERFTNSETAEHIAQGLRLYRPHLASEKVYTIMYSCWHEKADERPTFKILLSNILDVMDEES

As usually defined, the IC50 is the point on the concentration scale where inhibition reaches its midpoint. On to `C=CC(=O)N1CC[C@H](Oc2nc(Nc3ncc(C)s3)cc3c2ccn3CC(C)C)C1` [Example 81, (S)-1-(3-((1-isobutyl-6-((5-methylthiazol-2-yl)amino)-1H-pyrrolo[3,2-c]pyridin-4-yl)oxy)pyrrolidin-1-yl)prop-2-en-1-one], for which the IC50 in experiment [1] (setting [3]) and in experiment [2] (setting [4]) was ≤ 20 nM each time.

On to `C=CC(=O)N1CC[C@H](Oc2nc(Nc3ncc(C)s3)cc3c2ccn3CCCC)C1` [Example 124, (S)-1-(3-((1-butyl-6-((5-methylthiazol-2-yl)amino)-1H-pyrrolo[3,2-c]pyridin-4-yl)oxy)pyrrolidin-1-yl)prop-2-en-1-one], for which the 50% inhibitory concentration (IC50) in experiment [1] (setting [5]) and in experiment [2] (setting [6]) was ≤ 20 nM each time.

On to `C=CC(=O)N1C[C@@H](F)[C@H](Oc2nc(Nc3ncc(C)s3)cc3c2ccn3C)C1` [Example 157, 1-((3R,4R)-3-fluoro-4-((1-methyl-6-((5-methylthiazol-2-yl)amino)-1H-pyrrolo[3,2-c]pyridin-4-yl)oxy)pyrrolidin-1-yl)prop-2-en-1-one], for which the IC50 in experiment [1] (setting [3]) and in experiment [2] (setting [4]) was ≤ 20 nM in each case.

Take `C=CC(=O)N1C[C@@H](F)[C@H](Oc2nc(Nc3ncc(C)s3)cc3c2ccn3C[C@@H](C)CC)C1` [Example 175, 1-((3R,4R)-3-fluoro-4-((1-((S)-2-methylbutyl)-6-((5-methylthiazol-2-yl)amino)-1H-pyrrolo[3,2-c]pyridin-4-yl)oxy)pyrrolidin-1-yl)prop-2-en-1-one]: the IC50 in experiment [1] (setting [3]) and in experiment [2] (setting [4]) was ≤ 20 nM in each case.

For the compound `C=CC(=O)N1CC=C(c2nc(Nc3ncc(C)s3)cc3c2ccn3C(C)(C)C#N)CC1` [Example 22, 2-(4-(1-acryloyl-1,2,3,6-tetrahydropyridin-4-yl)-6-((5-methylthiazol-2-yl)amino)-1H-pyrrolo[3,2-c]pyridin-1-yl)-2-methylpropanenitrile], the IC50 in experiment [1] (setting [5]) and in experiment [2] (setting [6]) was ≤ 20 nM each time.

As to `C=CC(=O)N1C[C@H](F)[C@H](Oc2nc(Nc3ncc(C)s3)cc3c2ccn3CCOC)C1` [Example 147, 1-((3S,4R)-3-fluoro-4-((1-(2-methoxyethyl)-6-((5-methylthiazol-2-yl)amino)-1H-pyrrolo[3,2-c]pyridin-4-yl)oxy)pyrrolidin-1-yl)prop-2-en-1-one], the 50% inhibitory concentration (IC50) in experiment [1] (setting [3]) and in experiment [2] (setting [4]) was ≤ 20 nM throughout.

With `C=CC(=O)N1CC(Oc2nc(Nc3ncc(C)s3)cc3c2ccn3C2CCCC2)C1` [Example 142, 1-(3-((1-cyclopentyl-6-((5-methylthiazol-2-yl)amino)-1H-pyrrolo[3,2-c]pyridin-4-yl)oxy)azetidin-1-yl)prop-2-en-1-one], the IC50 in experiment [1] (setting [3]) and in experiment [2] (setting [4]) was ≤ 20 nM each time.

Consider `C=CC(=O)N1CCC[C@H]1COc1nc(Nc2ncc(C)s2)cc2c1ccn2C1CCCC1` [Example 222, (S)-1-(2-(((1-cyclopentyl-6-((5-methylthiazol-2-yl)amino)-1H-pyrrolo[3,2-c]pyridin-4-yl)oxy)methyl)pyrrolidin-1-yl)prop-2-en-1-one], for which the IC50 was 20 to 100 nM in experiment [1] (setting [3]) and ≤ 20 nM in experiment [2] (setting [4]).

Take `C=CC(=O)Nc1cc(-c2nc(Nc3ncc(C)s3)cc3c2ccn3C)ccc1C` [Example 55, N-(2-methyl-5-(1-methyl-6-((5-methylthiazol-2-yl)amino)-1H-pyrrolo[3,2-c]pyridin-4-yl)phenyl)acrylamide]: the IC50 in experiment [1] (setting [5]) and in experiment [2] (setting [6]) was ≤ 20 nM in each case.

On to `C=CC(=O)N1C[C@H](F)[C@H](Oc2nc(Nc3ncc(C)s3)cc3c2ccn3C2CCCC2)C1` [Example 109, 1-((3R,4S)-3-((1-cyclopentyl-6-((5-methylthiazol-2-yl)amino)-1H-pyrrolo[3,2-c]pyridin-4-yl)oxy)-4-fluoropyrrolidin-1-yl)prop-2-en-1-one], for which the IC50 in experiment [1] (setting [3]) and in experiment [2] (setting [4]) was ≤ 20 nM each time.

Consider `Cc1cnc(Nc2cc3c(ccn3CC(C)C)c(O[C@H]3CCN(C(=O)/C=C/CN(C)C)C3)n2)s1` [Example 227, (S,E)-4-(dimethylamino)-1-(3-((1-isobutyl-6-((5-methylthiazol-2-yl)amino)-1H-pyrrolo[3,2-c]pyridin-4-yl)oxy)pyrrolidin-1-yl)but-2-en-1-one], for which the IC50 in experiment [1] (setting [3]) and in experiment [2] (setting [4]) was > 500 nM each time.

On to `C=CC(=O)N1CC[C@H](Oc2nc(Nc3cc(C)ncn3)cc3c2ccn3C(C)C)C1` [Example 101, (S)-1-(3-((1-isopropyl-6-((6-methylpyrimidin-4-yl)amino)-1H-pyrrolo[3,2-c]pyridin-4-yl)oxy)pyrrolidin-1-yl)prop-2-en-1-one], for which the values for the IC50 in experiment [1] (setting [3]) and in experiment [2] (setting [4]) were 20 to 100 nM and ≤ 20 nM, respectively.

`C=CC(=O)N1C[C@@H](F)[C@@H](Oc2nc(Nc3ncc(C)s3)cc3c2ccn3CC(C)C)C1` [Example 135, 1-((3R,4S)-3-fluoro-4-((1-isobutyl-6-((5-methylthiazol-2-yl)amino)-1H-pyrrolo[3,2-c]pyridin-4-yl)oxy)pyrrolidin-1-yl)prop-2-en-1-one]: the IC50 in experiment [1] (setting [3]) and in experiment [2] (setting [4]) was > 500 nM each time.

Take `C=CC(=O)N1CC=C(c2nc(Nc3ncc(C)s3)cc3c2ccn3CCC(C)(C)C)CC1` [Example 18, 1-(4-(1-(3,3-dimethylbutyl)-6-((5-methylthiazol-2-yl)amino)-1H-pyrrolo[3,2-c]pyridin-4-yl)-3,6-dihydropyridin-1(2H)-yl)prop-2-en-1-one]: the figures for the IC50 in experiment [1] (setting [5]) and in experiment [2] (setting [6]) were ≤ 20 nM and 20 to 100 nM, respectively.

Regarding `C=CC(=O)N1C[C@H](F)[C@H](Oc2nc(Nc3ncc(C)s3)cc3c2ccn3CC(C)C)C1` [Example 105, 1-((3S,4R)-3-fluoro-4-((1-isobutyl-6-((5-methylthiazol-2-yl)amino)-1H-pyrrolo[3,2-c]pyridin-4-yl)oxy)pyrrolidin-1-yl)prop-2-en-1-one], the IC50 in experiment [1] (setting [3]) and in experiment [2] (setting [4]) was ≤ 20 nM in each case.

As for `C=CC(=O)Nc1ccc(F)c(-c2nc(Nc3ncc(C)s3)cc3c2ccn3CC2CCOC2)c1` (stereo not shown) [Example 71, N-(4-fluoro-3-(6-((5-methylthiazol-2-yl)amino)-1-((tetrahydrofuran-3-yl)methyl)-1H-pyrrolo[3,2-c]pyridin-4-yl)phenyl)acrylamide], the IC50 in experiment [1] (setting [5]) and in experiment [2] (setting [6]) was ≤ 20 nM each time.

For the compound `C=CC(=O)N1CC[C@H](Oc2nc(Nc3cc[nH]n3)cc3c2ccn3C(C)C)C1` [Example 192, (S)-1-(3-((6-((1H-pyrazol-3-yl)amino)-1-isopropyl-1H-pyrrolo[3,2-c]pyridin-4-yl)oxy)pyrrolidin-1-yl)prop-2-en-1-one], the figures for the IC50 in experiment [1] (setting [3]) and in experiment [2] (setting [4]) were 100 to 500 nM and ≤ 20 nM, respectively.

For `C=CC(=O)N1CCC=C(c2nc(Nc3ncc(C)s3)cc3c2ccn3C(C)C)CC1` [Example 26, 1-(4-(1-isopropyl-6-((5-methylthiazol-2-yl)amino)-1H-pyrrolo[3,2-c]pyridin-4-yl)-2,3,6,7-tetrahydro-1H-azepin-1-yl)prop-2-en-1-one], the IC50 in experiment [1] (setting [5]) and in experiment [2] (setting [6]) was ≤ 20 nM each time.

For the compound `C=CC(=O)N1C[C@@H](C)[C@H](Oc2nc(Nc3ncc(C)s3)cc3c2ccn3C(C)C)C1` (racemic) [Example 92, rac-1-((3S,4R)-3-((1-isopropyl-6-((5-methylthiazol-2-yl)amino)-1H-pyrrolo[3,2-c]pyridin-4-yl)oxy)-4-methylpyrrolidin-1-yl)prop-2-en-1-one], the IC50 in experiment [1] (setting [3]) and in experiment [2] (setting [4]) was ≤ 20 nM each time.

Regarding `C=CC(=O)N1C2C=C(c3nc(Nc4ncc(C)s4)cc4c3ccn4C(C)C)CC1CC2` (stereo not shown) [Example 29, 1-(3-(1-isopropyl-6-((5-methylthiazol-2-yl)amino)-1H-pyrrolo[3,2-c]pyridin-4-yl)-8-azabicyclo[3.2.1]oct-2-en-8-yl)prop-2-en-1-one], the IC50 in experiment [1] (setting [5]) and in experiment [2] (setting [6]) was ≤ 20 nM throughout.

As for `C=CC(=O)N1C[C@H](Oc2nc(Nc3ncc(C)s3)cc3c2ccn3CC(C)C)[C@@H](F)C1` [Example 134, 1-((3S,4S)-3-fluoro-4-((1-isobutyl-6-((5-methylthiazol-2-yl)amino)-1H-pyrrolo[3,2-c]pyridin-4-yl)oxy)pyrrolidin-1-yl)prop-2-en-1-one], the IC50 in experiment [1] (setting [3]) and in experiment [2] (setting [4]) was > 500 nM each time.

With `C=CC(=O)N1CC=C(c2nc(Nc3ncc(C)s3)cc3c2ccn3[C@@H](C)CC)CC1` [Example 13, (S)-1-(4-(1-(sec-butyl)-6-((5-methylthiazol-2-yl)amino)-1H-pyrrolo[3,2-c]pyridin-4-yl)-3,6-dihydropyridin-1(2H)-yl)prop-2-en-1-one], the IC50 in experiment [1] (setting [5]) and in experiment [2] (setting [6]) was ≤ 20 nM throughout.

As to `C=CC(=O)N1CC[C@H](Oc2nc(Nc3ncc(C)s3)cc3c2ccn3CC(C)(C)O)C1` [Example 140, (S)-1-(3-((1-(2-hydroxy-2-methylpropyl)-6-((5-methylthiazol-2-yl)amino)-1H-pyrrolo[3,2-c]pyridin-4-yl)oxy)pyrrolidin-1-yl)prop-2-en-1-one], the IC50 in experiment [1] (setting [3]) and in experiment [2] (setting [4]) was ≤ 20 nM in each case.
